{"source": "patent US4666715A", "about": "“Antibiotic AM-5344-A2 substance and process for the production thereof” (Kitasato Institute, priority 1980, dated 1987)", "origin": "cited, not measured here", "key": {"[1]": {"tested_on": "Gram-positive bacterium", "settings": "known antibiotics, literature"}, "[2]": {"settings": "known antibiotics, literature"}, "[3]": {"settings": "known antibiotics, literature", "remark": "listed apart in the source"}}, "data": [{"compound": "CO[C@H]1[C@@H](O)[C@@H](C)O[C@H](O[C@H]2[C@H](Oc3cccc4c(O)c5c(=O)oc6ccc(C)c7c(=O)oc(c34)c5c67)O[C@H](C)[C@H](O)[C@@H]2O)[C@@H]1O", "note": "[Chartreusin]", "values": [{"measurement": "effective to Gram-positive bacteria", "setting": "[1]", "result": "effective"}, {"measurement": "fat solubility", "setting": "[2]", "result": "fat-soluble"}, {"measurement": "acidity (neutral)", "setting": "[3]", "result": "neutral"}]}, {"compound": "COC(=O)c1cc2cc3cc4cc(CC(=O)O)c(C(=O)/C=C(\\O)c5ccccc5O)c(OC)c4c(OC)c3c(O)c2c(=O)o1", "note": "[Thermorubin A]", "values": [{"measurement": "effective to Gram-positive bacteria", "setting": "[1]", "result": "effective"}, {"measurement": "acidity (neutral)", "setting": "[3]", "result": "neutral"}]}, {"compound": "Mekemycin", "values": [{"measurement": "effective to Gram-positive bacteria", "setting": "[1]", "result": "effective"}, {"measurement": "acidity (neutral)", "setting": "[3]", "result": "neutral"}]}, {"compound": "Cerulomycin", "values": [{"measurement": "effective to Gram-positive bacteria", "setting": "[1]", "result": "effective"}, {"measurement": "acidity (neutral)", "setting": "[3]", "result": "neutral"}]}]}
